Measured values reported in ChEMBL document CHEMBL4351023, “Novel N-benzylpiperidine carboxamide derivatives as potential cholinesterase inhibitors for the treatment of Alzheimer's disease” (Eur J Med Chem, 2019).

Experiments:
[1] = Solubility of compound in water at 10 mM; assay type: physicochemical; settings: buffer, 10000 µM
Acetylcholinesterase = Acetylcholinesterase (Electrophorus electricus, UniProt O42275); test: Inhibition of Electrophorus electricus AChE using acetylthiocholine iodide as substrate by Ellman's method
Acetylcholinesterase, sequence (O42275 whole entry): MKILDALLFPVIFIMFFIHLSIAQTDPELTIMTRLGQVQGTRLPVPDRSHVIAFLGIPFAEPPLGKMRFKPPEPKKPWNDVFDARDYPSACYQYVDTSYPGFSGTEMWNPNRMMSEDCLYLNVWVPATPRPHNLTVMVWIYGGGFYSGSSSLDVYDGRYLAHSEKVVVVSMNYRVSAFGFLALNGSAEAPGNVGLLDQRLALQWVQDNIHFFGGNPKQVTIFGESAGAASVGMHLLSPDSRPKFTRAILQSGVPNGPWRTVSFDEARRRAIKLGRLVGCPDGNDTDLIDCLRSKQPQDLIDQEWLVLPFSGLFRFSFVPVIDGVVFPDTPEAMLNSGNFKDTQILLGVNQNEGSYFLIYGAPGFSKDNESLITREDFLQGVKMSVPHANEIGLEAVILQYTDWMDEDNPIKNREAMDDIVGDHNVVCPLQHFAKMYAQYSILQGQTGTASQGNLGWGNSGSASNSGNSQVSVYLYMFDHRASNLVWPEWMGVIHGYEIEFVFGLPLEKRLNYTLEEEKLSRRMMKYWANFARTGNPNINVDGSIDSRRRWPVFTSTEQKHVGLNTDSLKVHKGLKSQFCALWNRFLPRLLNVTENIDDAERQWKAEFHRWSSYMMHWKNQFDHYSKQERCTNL

SH-SY5Y = test: cells; assay type: ADME, cell-based; settings: Homo sapiens, 72 h
[2] = Solubility of compound in <1 % DMSO; assay type: physicochemical
Cholinesterase = Cholinesterase (Equus caballus, UniProt P81908); test: Inhibition of BuChE in equine serum using Butyrylthiocholine iodide as substrate by Ellman's method; assay type: cell-free
Cholinesterase, sequence (P81908 whole entry): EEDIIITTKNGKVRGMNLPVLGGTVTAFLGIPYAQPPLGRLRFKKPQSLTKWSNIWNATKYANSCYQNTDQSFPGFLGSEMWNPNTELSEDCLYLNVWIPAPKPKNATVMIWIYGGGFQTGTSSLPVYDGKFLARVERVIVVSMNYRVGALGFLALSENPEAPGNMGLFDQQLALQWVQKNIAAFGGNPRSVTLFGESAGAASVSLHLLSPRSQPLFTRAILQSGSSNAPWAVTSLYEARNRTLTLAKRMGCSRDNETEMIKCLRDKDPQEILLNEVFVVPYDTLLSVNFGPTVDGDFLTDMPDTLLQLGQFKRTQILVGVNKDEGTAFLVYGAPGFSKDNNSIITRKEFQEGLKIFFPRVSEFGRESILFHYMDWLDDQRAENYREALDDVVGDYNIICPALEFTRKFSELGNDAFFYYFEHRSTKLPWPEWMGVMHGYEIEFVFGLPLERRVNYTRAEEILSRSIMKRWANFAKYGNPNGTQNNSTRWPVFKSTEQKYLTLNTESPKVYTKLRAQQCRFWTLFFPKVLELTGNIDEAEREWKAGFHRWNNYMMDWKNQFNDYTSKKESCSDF

O=C(NCCc1c[nH]c2ccccc12)C1CCN(Cc2ccccc2)CC1
solubility [1]: Insoluble
IC50 (Acetylcholinesterase): 25.6 µM
IC50 (SH-SY5Y): 40.5 µM
solubility [2]: Soluble
IC50 (Cholinesterase): > 100 µM

COc1ccccc1CNC(=O)C1CCN(Cc2ccccc2)CC1
solubility [1]: Insoluble
IC50 (Acetylcholinesterase): 44.4 µM
IC50 (SH-SY5Y): 50.9 µM
solubility [2]: Soluble
IC50 (Cholinesterase): > 100 µM

Cc1c(NC(=O)C2CCN(Cc3ccccc3)CC2)c(=O)n(-c2ccccc2)n1C
solubility [1]: Insoluble
IC50 (Acetylcholinesterase): 5.94 µM
IC50 (SH-SY5Y): > 100 µM
solubility [2]: Soluble
IC50 (Cholinesterase): > 100 µM

O=C(NC1CCCc2ccccc21)C1CCN(Cc2ccccc2)CC1 (stereo not given)
solubility [1]: Insoluble
IC50 (Acetylcholinesterase): > 100 µM
IC50 (SH-SY5Y): 99.3 µM
solubility [2]: Soluble
IC50 (Cholinesterase): > 100 µM

O=C(NCc1cccnc1)C1CCN(Cc2ccccc2)CC1
solubility [1]: Insoluble
IC50 (Acetylcholinesterase): 58.9 µM
IC50 (SH-SY5Y): > 100 µM
solubility [2]: Soluble
IC50 (Cholinesterase): > 100 µM

O=C(Nc1nccs1)C1CCN(Cc2ccccc2)CC1
solubility [1]: Insoluble
IC50 (Acetylcholinesterase): 51.1 µM
IC50 (SH-SY5Y): 76.6 µM
solubility [2]: Soluble
IC50 (Cholinesterase): > 100 µM

O=C(NCCN1CCOCC1)C1CCN(Cc2ccccc2)CC1
solubility [1]: Insoluble
IC50 (Acetylcholinesterase): > 100 µM
IC50 (SH-SY5Y): 73.4 µM
solubility [2]: Soluble
IC50 (Cholinesterase): > 100 µM

O=C(NCCNc1cccc2ccccc12)C1CCN(Cc2ccccc2)CC1
solubility [1]: Insoluble
IC50 (Acetylcholinesterase): 14 µM
IC50 (SH-SY5Y): 13.6 µM
solubility [2]: Soluble
IC50 (Cholinesterase): > 100 µM

O=C(NCCN1CCCCC1)C1CCN(Cc2ccccc2)CC1
solubility [1]: Insoluble
IC50 (Acetylcholinesterase): 82.1 µM
IC50 (SH-SY5Y): > 100 µM
solubility [2]: Soluble
IC50 (Cholinesterase): > 100 µM

O=C(NCc1ccco1)C1CCN(Cc2ccccc2)CC1
solubility [1]: Insoluble
IC50 (Acetylcholinesterase): > 100 µM
IC50 (SH-SY5Y): > 100 µM
solubility [2]: Soluble
IC50 (Cholinesterase): > 100 µM

COc1cc2c(cc1OC)C(=O)C(CC1CCN(Cc3ccccc3)CC1)C2 (stereo not given) [DONEPEZIL]
IC50 (SH-SY5Y): 95.1 µM

O=C(NCc1ccccn1)C1CCN(Cc2ccccc2)CC1
solubility [1]: Insoluble
IC50 (Acetylcholinesterase): 30.9 µM
IC50 (SH-SY5Y): > 100 µM
solubility [2]: Soluble
IC50 (Cholinesterase): > 100 µM

COc1cc(CCNC(=O)C2CCN(Cc3ccccc3)CC2)cc(OC)c1OC
solubility [1]: Insoluble
IC50 (Acetylcholinesterase): > 100 µM
IC50 (SH-SY5Y): > 100 µM
solubility [2]: Soluble
IC50 (Cholinesterase): > 100 µM

O=C(NCc1ccncc1)C1CCN(Cc2ccccc2)CC1
solubility [1]: Insoluble
IC50 (Acetylcholinesterase): 58.2 µM
IC50 (SH-SY5Y): 3.37 µM
solubility [2]: Soluble
IC50 (Cholinesterase): > 100 µM

O=C(NCCc1c[nH]cn1)C1CCN(Cc2ccccc2)CC1
solubility [1]: Insoluble
IC50 (Acetylcholinesterase): > 100 µM
IC50 (SH-SY5Y): > 100 µM
solubility [2]: Soluble
IC50 (Cholinesterase): > 100 µM

COc1cc2c(cc1OC)-c1nc(NC(=O)C3CCN(Cc4ccccc4)CC3)sc1C2
solubility [1]: Insoluble
IC50 (SH-SY5Y): 31.3 µM
solubility [2]: Soluble
IC50 (Cholinesterase): > 100 µM
